Here are results for 3 molecules from paper PMC5863515, “Re-evaluation of Adrenocorticotropic Hormone and Melanocyte Stimulating Hormone Activation of GPR139 in Vitro” (Frontiers in Pharmacology, 2018).

For one experiment, the target named is MC5R + GPR139 (Homo sapiens, UniProt Q6DWJ6). Briefly: Calcium mobilization, HEK-293 transiently expressing MC5R + GPR139. Type of experiment: cell-based. The method, then: (§1) Human MC3R (NM_019888), MC4R (NM_005912), and MC5R (NM_005913) were transiently expressed in HEK-293 cells with and without human GPR139 (KR081941) or the chimeric G-protein Gα16. All genes were cloned into pCIneo (Promega, Madison, WI, United States, #E1841). HEK-293 cells were cultured in DMEM/F12 (Gibco, Grand Island, NY, United States, #11039-021), 10% FBS (Hyclone, Logan, UT, United States, # SH300700.03), 50 units/ml penicillin and 50 μg/ml streptomycin (Mediatech, Manassas, VA, United States, #30-001-CI). Cells were seeded at 4 × 10^6 cells in 10 cm dishes and allowed to grow overnight at 37°C, 5% CO2. On the day of transfection, culture media was replaced with F12-K (Mediatech, Manassas, VA, United States, #10-025-CV), 10% FBS, 20 mM HEPES (Hyclone, Logan, UT, United States, #SH30237.01) and transfected with 15 μg DNA (10 μg MCR:5 μg pCIneo, 10 μg MCR:5 μg Gα16 or 7.5 μg MCR:7.5 μg GPR139) using FuGene HD (Promega, Madison, WI, United States, #E2311) according to manufacturer’s instructions. MC3R, MC4R, and MC5R were also transiently expressed in the following GPR139 stably expressing cell lines using the FuGENE HD method: HEK-293 GPR139 clone#33, CHO-TREx GPR139 clone#18, and SK-N-MC/CRE TREx GPR139 clone#35. Stable cell lines were established according to method previously described ([Liu et al., 2015]).
Sequence of MC5R + GPR139 (P33032 whole entry partner, one chain of several): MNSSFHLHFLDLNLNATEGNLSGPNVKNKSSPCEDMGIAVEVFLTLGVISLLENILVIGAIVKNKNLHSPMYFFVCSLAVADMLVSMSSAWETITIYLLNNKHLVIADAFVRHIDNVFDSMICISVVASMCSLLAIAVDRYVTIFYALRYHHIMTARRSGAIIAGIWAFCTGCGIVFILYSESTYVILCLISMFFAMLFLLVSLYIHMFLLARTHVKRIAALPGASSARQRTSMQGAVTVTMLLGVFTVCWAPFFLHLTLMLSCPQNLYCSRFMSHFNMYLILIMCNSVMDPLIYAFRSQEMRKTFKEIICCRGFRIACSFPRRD
(§2) Intracellular calcium mobilization was measured with the BD calcium kit (BD Bioscience, San Jose, CA, United States). The recombinant cell lines expressing MC3R, MC4R, and MC5R with and without GPR139 or Gα16 were seeded in culture media at a density of 50,000 cells/well into 96-well black/clear-bottom poly-D-lysine treated tissue culture plates. Cells were incubated overnight at 37°C and 5% CO2. Next day, culture media was removed and cells were washed with HBSS prior to dye-loading for 1 h at 37°C and 5% CO2. Agonist stimulation and intracellular calcium measurements were done on the FLIPR Tetra (Molecular Devices, Sunnyvale, CA, United States). For receptor inhibition analysis, antagonists (1 μM HS-024 or 10 μM JNJ-3792165) were added off-line 15 min prior to agonist addition on the Tetra. For G-protein inhibitor experiments, cells were treated with 1 μM YM-254890 for 5 min prior to agonist additions on the Tetra. […] Responses in Figure 6 were normalized to its respective agonist response without antagonist. EC50s were calculated by fitting a three-parameter logistic curve using least-squares non-linear regression analysis as implemented in Graphpad Prism 7.0.
In general terms: Calcium assays in cells follow changes in intracellular calcium, usually with a dye or a luminescent sensor.

Experiment [1] deals with T1, GPR139 (Homo sapiens, UniProt Q6DWJ6).
T1 sequence (Q6DWJ6 1-353): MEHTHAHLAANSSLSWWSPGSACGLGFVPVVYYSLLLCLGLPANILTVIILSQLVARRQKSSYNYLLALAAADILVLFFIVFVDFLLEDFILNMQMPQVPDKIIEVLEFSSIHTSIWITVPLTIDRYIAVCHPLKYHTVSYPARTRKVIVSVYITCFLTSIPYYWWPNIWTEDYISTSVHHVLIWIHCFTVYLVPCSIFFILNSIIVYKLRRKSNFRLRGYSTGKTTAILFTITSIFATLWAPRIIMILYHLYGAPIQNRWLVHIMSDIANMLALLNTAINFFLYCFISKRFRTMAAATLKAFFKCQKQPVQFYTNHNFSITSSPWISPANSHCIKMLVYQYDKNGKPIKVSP
Briefly: Calcium mobilization, CHO-TREx cells stably expressing human GPR139. Type of experiment: cell-based. Further details: expressed in transfected cells; host or cells: CHO-TREx GPR139 clone#18.

In a further experiment the target is T2, MC3R (Homo sapiens, UniProt P41968).
T2 construct: expressed in transfected cells; host or cells: HEK-293, pCIneo, transient (FuGene HD)
T2 sequence (P41968 whole entry): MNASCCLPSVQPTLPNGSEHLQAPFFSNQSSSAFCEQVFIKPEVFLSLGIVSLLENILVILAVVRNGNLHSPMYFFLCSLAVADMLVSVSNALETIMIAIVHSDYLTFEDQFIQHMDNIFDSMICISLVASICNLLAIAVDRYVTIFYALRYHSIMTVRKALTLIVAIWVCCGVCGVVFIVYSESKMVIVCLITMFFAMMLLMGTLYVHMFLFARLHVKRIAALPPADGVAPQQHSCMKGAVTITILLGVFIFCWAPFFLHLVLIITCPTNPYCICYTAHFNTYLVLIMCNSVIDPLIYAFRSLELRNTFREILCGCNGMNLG
The experiment in a line: Calcium mobilization, HEK-293 transiently expressing MC3R. In kind it is cell-based. The method, then:
as §1
(§3) Intracellular calcium mobilization was measured with the BD calcium kit (BD Bioscience, San Jose, CA, United States). The recombinant cell lines expressing MC3R, MC4R, and MC5R with and without GPR139 or Gα16 were seeded in culture media at a density of 50,000 cells/well into 96-well black/clear-bottom poly-D-lysine treated tissue culture plates. Cells were incubated overnight at 37°C and 5% CO2. Next day, culture media was removed and cells were washed with HBSS prior to dye-loading for 1 h at 37°C and 5% CO2. […] EC50s were calculated by fitting a three-parameter logistic curve using least-squares non-linear regression analysis as implemented in Graphpad Prism 7.0.

The target in another experiment is GPR139 + MC5R (Homo sapiens, UniProt Q6DWJ6). Briefly: Calcium mobilization, stable GPR139-HEK-293 cell line transiently expressing MC5R. Type of experiment: cell-based. As to the method:
as §1, §3

Another experiment concerns the target MC3R + GPR139 (Homo sapiens, UniProt Q6DWJ6). The experiment in a line: Calcium mobilization, HEK-293 transiently expressing MC3R + GPR139. Type of experiment: cell-based.
The target of experiment [2] is T1, GPR139. Briefly: [35S]-GTPγS binding assay, membranes of CHO-TREx cells stably expressing GPR139. Type of experiment: biochemical. Further details: expressed in transfected cells; host or cells: CHO-TREx GPR139 clone#18. To be noted: for Stimulation of [35S]-GTPγS incorporation after pertussis toxin treatment: 100 ng/ml pertussis toxin overnight; for Stimulation of [35S]-GTPγS incorporation after pertussis toxin treatment / Effect of YM-254890 on agonist [35S]-GTPγS response: data not shown; for Effect of YM-254890 on agonist [35S]-GTPγS response: 1 μM YM-254890 (Gq inhibitor); for EC50: CHO-TREx GPR139 membranes, mean ± SEM, read-out: pEC50, [35S]-GTPγS binding (converted). The method, then:
For G-protein inhibitor experiments, CHO-TRex cells stably expressing GPR139 were treated with 100 ng/ml pertussis toxin (Gi/o inhibitor) overnight prior to harvesting cells for membrane preparations. […] Reactions were terminated by rapid filtration through GF/C filterplates (Perkin-Elmer, Waltham, MA, United States) on a Cell Harvester (Perkin-Elmer, Waltham, MA, United States). Filterplates were washed three times with ice-cold wash buffer (50 mM Tris, 5 mM MgCl2) and Microscint-40 was added to each well. Bound radioactivity was measured on a Topcount scintillation counter (Perkin-Elmer, Waltham, MA, United States). […] EC50s were calculated by modeling the response associated with the logarithm of concentration as a three-parameter logistic curve with the Bottom plateau parameter fixed at 0. The fit was obtained using least-squares non-linear regression as implemented in GraphPad Prism 7.0.

Experiment [3] has as its target T1, GPR139. Also on record: expressed in transfected cells; host or cells: CHO-TREx GPR139 clone#18; method as in Liu et al., 2015. To be noted: used for Cheng-Prussoff; ref Liu et al., 2015; read-out: Kd of [3H]JNJ-63533054; cited from earlier work.
Experiment [4] concerns the target T1, GPR139. The experiment in a line: Calcium mobilization, HEK-293 cells stably expressing human GPR139. Type of experiment: cell-based. Also on record: expressed in transfected cells. As to the method: as §1, §2
Experiment [5] has as its target T1, GPR139. Further details: method as in Shehata et al. (2016). To be noted: ref Shehata et al. (2016); cited from earlier work.
Experiment [6] addresses T1, GPR139. Further details: method as in Liu et al., 2015. To be noted: ref Liu et al., 2015; cited from earlier work.
Where [7] appears, read: CHO-TREx stable GPR139, read-out: pEC50, calcium mobilization (converted).
[8] abbreviates: HEK-293 transient, read-out: Agonist potency (pEC50), MC3R (converted).
Where [9] appears, read: HEK-293 stable GPR139, read-out: pEC50, calcium mobilization (converted).

The Kd is the free concentration of one partner at which half of the binding sites on the other are occupied at equilibrium, for simple one-to-one binding.

Molecules are shown by their SMILES. Read-outs that look alike come from different tables or passages of the source. A value given as a limit tells only on which side of the number the result lay.

Sequence of MC3R + GPR139 (P41968 whole entry partner, one chain of several): as the sequence (P41968 whole entry) above
Sequence of GPR139 + MC5R (P33032 whole entry partner, one chain of several): as the sequence (P33032 whole entry partner, one chain of several) above
Experimental for MC3R + GPR139: Intracellular calcium mobilization was measured with the BD calcium kit (BD Bioscience, San Jose, CA, United States). The recombinant cell lines expressing MC3R, MC4R, and MC5R with and without GPR139 or Gα16 were seeded in culture media at a density of 50,000 cells/well into 96-well black/clear-bottom poly-D-lysine treated tissue culture plates. Cells were incubated overnight at 37°C and 5% CO2. Next day, culture media was removed and cells were washed with HBSS prior to dye-loading for 1 h at 37°C and 5% CO2. Agonist stimulation and intracellular calcium measurements were done on the FLIPR Tetra (Molecular Devices, Sunnyvale, CA, United States). […] EC50s were calculated by fitting a three-parameter logistic curve using least-squares non-linear regression analysis as implemented in Graphpad Prism 7.0.

Turning to `C[C@H](NC(=O)CNC(=O)c1cccc(Cl)c1)c1ccccc1` [JNJ-63533054, 3-chloro-N-[2-oxo-2-[[(1S)-1-phenylethyl]amino]ethyl]benzamide], the EC50 on MC5R + GPR139 was 0.0209 µM; on GPR139 [1] (setting [7]), 0.0132 µM; at MC3R (setting [8]), > 10 µM; at MC3R + GPR139, 0.0372 µM; at GPR139 [2], 0.0646 µM; at GPR139 [4] (setting [9]) it was 0.0214 µM. The “Agonist potency (pEC50), MC5R + GPR139, No antagonist” value on MC5R + GPR139 was 7.68 ± 0.08. On GPR139 + MC5R, the “Agonist potency (pEC50), stable GPR139-HEK-293 + MC5R” value is given as 7.80 ± 0.07. The “Agonist potency (pEC50), MC3R + GPR139, No antagonist” value on MC3R + GPR139 is 7.43 ± 0.09. The “Stimulation of [35S]-GTPγS incorporation after pertussis toxin treatment” value (from here on “Stimulation of [35S]-GTPγS incorporation”) on GPR139 [2] was “did not stimulate”. Further, the “Effect of YM-254890 on agonist [35S]-GTPγS response” value (“Effect of YM-254890 on agonist” for short) on GPR139 [2] is reported as “had no effect”. In addition, the Kd on GPR139 [3] is 0.01 µM. The cAMP response result at GPR139 [5] is given as “unable to induce or inhibit a cAMP response”.
Take `N[C@@H](Cc1c[nH]c2ccccc12)C(=O)O` [L-Trp, L-tryptophan]: the EC50 on MC5R + GPR139 was 95.5 µM; on GPR139 [1] (setting [7]), 123 µM; on MC3R (setting [8]) it was > 3160 µM; on GPR139 [6], 30 to 300 µM; on GPR139 + MC5R, 162 µM; at MC3R + GPR139, 87.1 µM. Moreover, the EC50 on GPR139 [2] was 427 µM; on GPR139 [4] (setting [9]) it was 204 µM. Moreover, at MC5R + GPR139, the “Agonist potency (pEC50), MC5R + GPR139, No antagonist” value amounted to 4.02 ± 0.07. In addition, the “Agonist potency (pEC50), MC3R + GPR139, No antagonist” value on MC3R + GPR139 turned out to be 4.06 ± 0.06. For the same molecule, the “Stimulation of [35S]-GTPγS incorporation” value at GPR139 [2] is on record as “did not stimulate”. In addition, the “Effect of YM-254890 on agonist” value at GPR139 [2] is on record as “had no effect”.
Regarding `COc1cc(OC)cc(C(=O)NNC(=O)Nc2cccc3ccccc23)c1` [TC-O9311], the EC50 on MC5R + GPR139 was 0.0372 µM; on GPR139 [1] it was 0.0398 µM; at MC3R it was > 10 µM; on GPR139 + MC5R it was 0.0417 µM; on MC3R + GPR139 it was 0.0692 µM; at GPR139 [2] it was 0.178 µM. For the same molecule, the EC50 on GPR139 [4] was 0.0776 µM. On MC5R + GPR139, the “Agonist potency (pEC50), MC5R + GPR139, No antagonist” value is reported as 7.43 ± 0.06. In addition, on MC3R + GPR139, the “Agonist potency (pEC50), MC3R + GPR139, No antagonist” value is 7.16 ± 0.08. Moreover, at GPR139 [2], the “Stimulation of [35S]-GTPγS incorporation” value is recorded as “did not stimulate”. Moreover, the “Effect of YM-254890 on agonist” value on GPR139 [2] was “had no effect”. Further, the cAMP response result on GPR139 [5] was “unable to induce or inhibit a cAMP response”.
